This is an account of results in patent US9676721B2, “Compounds and compositions for the inhibition of NAMPT” (FORMA TM, LLC, priority 2010, dated 2017).

The target in assay [1] is NAMPT (Homo sapiens (Human), UniProt P43490). The assay can be described thus: Biochemical Inhibition Assay (NAMPT enzymatic reaction, NMN by mass spectrometry). As to conditions: recombinant His-tagged NAMPT 33 nM, 1 μM NAM, 30 minutes; read-out: Biochem IC50. The method, then: Biochemical Inhibition Assay NAMPT Protein Purification Recombinant His-tagged NAMPT was produced in E. coli cells, purified over a Ni column, and further purified over a size-exclusion column by XTAL Biostructures. The NAMPT Enzymatic Reaction The NAMPT enzymatic reactions were carried out in Buffer A (50 mM Hepes pH 7.5, 50 mM NaCl, 5 mM MgCl2, and 1 mM THP) in 96-well V-bottom plates. The compound titrations were performed in a separate dilution plate by serially diluting the compounds in DMSO to make a 100× stock. […] Background and signal strength was determined by addition (or non-addition) of a serial dilution of NMN to a pre-quenched enzyme and cofactor mix. Quantification of NMN A mass spectrometry-based assay was used to measure the NAMPT reaction product (NMN) and the internal control (L-Cystathionine). NMN and L-Cystathionine were detected using the services of Biocius Lifesciences with the RapidFire system. In short, the NMN and L-Cystathionine are bound to a graphitic carbon cartridge in 0.1% formic acid, eluted in 30% acetonitrile buffer, and injected into a Sciex 4000 mass spectrometer. The components of the sample were ionized with electrospray ionization and the positive ions were detected. […] The fragments are quantified and the analyzed by the following method. % Inhibitions are Determined Using this Method. First the NMN signal is normalized to the L-Cystathionine signal by dividing the NMN signal by the L-Cystathionine signal for each well. The signal from the background wells are averaged and subtracted from the test plates. […] IC50s are Determined Using Excel and this Formula.
Chain of NAMPT (P43490 whole entry): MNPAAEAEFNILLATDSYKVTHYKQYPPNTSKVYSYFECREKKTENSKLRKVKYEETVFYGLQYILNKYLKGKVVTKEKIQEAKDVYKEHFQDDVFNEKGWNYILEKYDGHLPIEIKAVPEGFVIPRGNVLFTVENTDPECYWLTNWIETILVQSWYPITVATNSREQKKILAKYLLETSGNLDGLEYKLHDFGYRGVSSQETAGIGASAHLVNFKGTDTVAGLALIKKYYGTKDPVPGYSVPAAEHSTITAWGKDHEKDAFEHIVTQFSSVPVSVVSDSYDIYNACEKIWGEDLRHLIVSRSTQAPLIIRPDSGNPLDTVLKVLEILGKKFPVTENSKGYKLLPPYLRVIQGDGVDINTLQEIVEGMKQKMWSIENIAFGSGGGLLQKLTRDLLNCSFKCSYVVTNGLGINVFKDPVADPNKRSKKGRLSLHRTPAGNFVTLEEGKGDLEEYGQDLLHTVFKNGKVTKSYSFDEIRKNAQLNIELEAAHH

The subject of assay [2] is A2780 cells. Kind of assay: In-Vitro Cell Proliferation Assay (SRB). Type of assay: cell-based. The method, then:
In-Vitro Cell Proliferation Assay […] After overnight incubation at 37° C. and 5% CO2, the compound titrations were performed in a separate dilution plate by serially diluting the compounds in DMSO to make a 1000× stock. The compounds were then further diluted to 10× final concentration in culture media, whereupon 20 μL of each dilution was added to the plated cells with controls (e.g. DMSO and blank) to make a final volume of 200 μL. The final DMSO concentration in each well was 0.1%. The plates were then incubated for 72 hours at 37° C. in a 5% CO2 incubator. The number of viable cells was then assessed using sulforhodamine B (SRB) assay. Cells were fixed at 4° C. for 1 hour with the addition of 50 μL 30% trichloroacetic acid (TCA) to make a final concentration of 6% TCA. The plates were washed four times with H2O and allowed to dry for at least 1 hour, whereupon 100 μL of a […] SRB in 1% acetic acid solution was added to each well and incubated at room temperature for at least 30 minutes. The plates were then washed three times with 1% acetic acid, dried, and treated with 100 μL of 10 mM Tris-Base solution. The plates were then read in a microplate reader at an absorbance of 570 nm. Background was generated on a separate plate with media only. Method for Determining % Inhibition First, the signals from the background plate are averaged, then the background was subtracted from the test plates. […] Formula for Determining IC50 Values: […] Specificity of Cytotoxicity. Inhibition of NAMPT could be reversed by the addition of NAM or NMN. The specificity of the compounds were determined via cell viability assay in the presence of the compound and either NAM or NMN. Percent inhibitions were determined using the method given above.

pIC50: −log10 of the molar value.

A word on the pIC50: it is the IC50 on a negative log10 scale, so that one unit is a factor of ten. On to `N#CN=C(NCc1ccc(S(=O)(=O)c2ccnc(N3CCOCC3)c2Cl)cc1)Nc1ccncc1` [1-({4-[3-chloro-2-(morpholin-4-yl)pyridine-4-sulfonyl]phenyl}methyl)-2-cyano-3-(pyridin-4-yl)guanidine], for which the pIC50 is 8.47 in assay [1] and 8.39 in assay [2] (Homo sapiens, A2780, 72 h).

As for `COc1ccc(S(=O)(=O)c2ccc(CNC(=NC#N)Nc3ccncc3)cc2)cc1Cl` [1-({4-[(3-chloro-4-methoxybenzene)sulfonyl]phenyl}methyl)-2-cyano-3-(pyridin-4-yl)guanidine], the pIC50 was 8.59 in assay [1] and 8.31 in assay [2] (Homo sapiens, A2780, 72 h). In the same order, the values of `Cc1ccc(S(=O)(=O)c2ccc(CNC(=NC#N)Nc3ccncc3)cc2)cc1Cl` [1-({4-[(3-chloro-4-methylbenzene)sulfonyl]phenyl}methyl)-2-cyano-3-(pyridin-4-yl)guanidine] are 8.72 and 8.80. On the same counts, the results for `CCCOc1ccc(S(=O)(=O)c2ccc(CNC(=NC#N)Nc3ccncc3)cc2)cc1Cl` [1-({4-[(3-chloro-4-propoxybenzene)sulfonyl]phenyl}methyl)-2-cyano-3-(pyridin-4-yl)guanidine] are 8.31 and 8.24. In the same order, the values of `N#CN=C(NCc1ccc(S(=O)(=O)c2cc(F)cc(Cl)c2)cc1)Nc1ccncc1` [1-({4-[(3-chloro-5-fluorobenzene)sulfonyl]phenyl}methyl)-2-cyano-3-(pyridin-4-yl)guanidine] are 8.29 and 8.16.

On to `COc1cc(Cl)cc(S(=O)(=O)c2ccc(CNC(=NC#N)Nc3ccncc3)cc2)c1` [1-({4-[(3-chloro-5-methoxybenzene)sulfonyl]phenyl}methyl)-2-cyano-3-(pyridin-4-yl)guanidine], for which the negative logarithm of the IC50 (pIC50) in assay [1] was 8.34; in assay [2] (Homo sapiens, A2780, 72 h) it was 8.80. For `Cc1cc(Cl)cc(S(=O)(=O)c2ccc(CNC(=NC#N)Nc3ccncc3)cc2)c1` [1-({4-[(3-chloro-5-methylbenzene)sulfonyl]phenyl}methyl)-2-cyano-3-(pyridin-4-yl)guanidine], the pIC50 was 8.48 in assay [1] and 8.80 in assay [2] (Homo sapiens, A2780, 72 h). On the same counts, the results for `CC(=O)c1ccc(S(=O)(=O)c2ccc(CNC(=NC#N)Nc3ccncc3)cc2)cc1` [1-({4-[(4-acetylbenzene)sulfonyl]phenyl}methyl)-2-cyano-3-(pyridin-4-yl)guanidine] are 8.30 and 8.14. In the same order, the values of `COc1cc(Cl)ccc1S(=O)(=O)c1ccc(CNC(=NC#N)Nc2ccncc2)cc1` [1-({4-[(4-chloro-2-methoxybenzene)sulfonyl]phenyl}methyl)-2-cyano-3-(pyridin-4-yl)guanidine] are 8.52 and 8.72. On the same counts, the results for `N#CN=C(NCc1ccc(S(=O)(=O)c2ccc(Cl)c(F)c2)cc1)Nc1ccncc1` [1-({4-[(4-chloro-3-fluorobenzene)sulfonyl]phenyl}methyl)-2-cyano-3-(pyridin-4-yl)guanidine] are 8.70 and 8.72. Regarding `N#CN=C(NCc1ccc(S(=O)(=O)c2ccc(Cl)cc2)cc1)Nc1ccncc1` [1-({4-[(4-chlorobenzene)sulfonyl]phenyl}methyl)-2-cyano-3-(pyridin-4-yl)guanidine], the pIC50 in assay [1] is 8.44; in assay [2] (Homo sapiens, A2780, 72 h) it was 8.43. Regarding `COc1ccc(Cl)cc1S(=O)(=O)c1ccc(CNC(=NC#N)Nc2ccncc2)cc1` [1-({4-[(5-chloro-2-methoxybenzene)sulfonyl]phenyl}methyl)-2-cyano-3-(pyridin-4-yl)guanidine], the pIC50 in assay [1] was 8.30; in assay [2] (Homo sapiens, A2780, 72 h), 8.19. On the same counts, the results for `N#C/N=C(/NCc1cccnc1)Nc1ccc(S(=O)(=O)c2ccccc2)cc1` [1-[4-(benzenesulfonyl)phenyl]-2-cyano-3-(pyridin-3-ylmethyl)guanidine] are 7.49 and 5.57. In the same order, the values of `N#CN=C(NCc1ccc(S(=O)(=O)c2cc(Cl)cc(C(F)(F)F)c2)cc1)Nc1ccncc1` [1-[(4-{[3-chloro-5-(trifluoromethyl)benzene]sulfonyl}phenyl)methyl]-2-cyano-3-(pyridin-4-yl)guanidine] are 8.48 and 8.80. In the same order, the values of `N#CN=C(NCc1ccc(S(=O)(=O)c2ccc(Cl)c(C(F)(F)F)c2)cc1)Nc1ccncc1` [1-[(4-{[4-chloro-3-(trifluoromethyl)benzene]sulfonyl}phenyl)methyl]-2-cyano-3-(pyridin-4-yl)guanidine] are 9.00 and 8.82.

On to `N#C/N=C(\NCCc1ccc(S(=O)(=O)c2ccccc2)cc1)Nc1ccncc1` [1-{2-[4-(benzenesulfonyl)phenyl]ethyl}-2-cyano-3-(pyridin-4-yl)guanidine], for which the pIC50 in assay [1] is 9.00; in assay [2] (Homo sapiens, A2780, 72 h), 8.28. Compound `N#CN=C(NCc1ccc(S(=O)(=O)c2cccc3c2OCO3)cc1)Nc1ccncc1` [1-{[4-(2H-1,3-benzodioxole-4-sulfonyl)phenyl]methyl}-2-cyano-3-(pyridin-4-yl)guanidine] gave a pIC50 in assay [2] (Homo sapiens, A2780, 72 h) of 8.03. `N#CN=C(NCc1ccc(S(=O)(=O)c2ccc3c(c2)OCO3)cc1)Nc1ccncc1` [1-{[4-(2H-1,3-benzodioxole-5-sulfonyl)phenyl]methyl}-2-cyano-3-(pyridin-4-yl)guanidine]: the pIC50 in assay [1] is 8.74; in assay [2] (Homo sapiens, A2780, 72 h), 8.48. As to `N#C/N=C(\NCc1ccc(S(=O)(=O)c2ccccc2)cc1)NCc1ccn2ccnc2c1` [2-cyano-1-(imidazo[1,2-a]pyridin-7-ylmethyl)-3-(4-(phenylsulfonyl)benzyl)guanidine], the pIC50 in assay [1] is 6.58; in assay [2] (Homo sapiens, A2780, 72 h), 6.49. In the case of `N#CN=C(NCc1ccc(S(=O)(=O)c2ccccc2OC(F)(F)F)cc1)Nc1ccncc1` [2-cyano-1-(pyridin-4-yl)-3-[(4-{[2-(trifluoromethoxy)benzene]sulfonyl}phenyl)methyl]guanidine], the pIC50 in assay [1] was 8.40; in assay [2] (72 hours) it was 9.22.

For `CN(C)c1ncc(S(=O)(=O)c2ccc(CNC(=NC#N)Nc3ccncc3)cc2)cn1` [2-cyano-1-({4-[2-(dimethylamino)pyrimidine-5-sulfonyl]phenyl}methyl)-3-(pyridin-4-yl)guanidine], the pIC50 in assay [1] is 8.07; in assay [2] (Homo sapiens, A2780, 72 h) it was 8.15. Take `N#CN=C(NCc1ccc(S(=O)(=O)c2ccc(N3CCOCC3)nc2)cc1)Nc1ccncc1` [2-cyano-1-({4-[6-(morpholin-4-yl)pyridine-3-sulfonyl]phenyl}methyl)-3-(pyridin-4-yl)guanidine]: the pIC50 is 8.72 in assay [1] and 8.48 in assay [2] (Homo sapiens, A2780, 72 h). Consider `Cc1cccc(S(=O)(=O)c2ccc(CNC(=NC#N)Nc3ccncc3)cc2)c1C` [2-cyano-1-({4-[(2,3-dimethylbenzene)sulfonyl]phenyl}methyl)-3-(pyridin-4-yl)guanidine], for which the pIC50 is 8.40 in assay [1] and 8.46 in assay [2] (Homo sapiens, A2780, 72 h).

With `Cc1ccc(S(=O)(=O)c2ccc(CNC(=NC#N)Nc3ccncc3)cc2)c(C)c1` [2-cyano-1-({4-[(2,4-dimethylbenzene)sulfonyl]phenyl}methyl)-3-(pyridin-4-yl)guanidine], the pIC50 in assay [1] is 8.62; in assay [2] (Homo sapiens, A2780, 72 h), 8.82. In the case of `N#C/N=C(\NCc1ccc(S(=O)(=O)c2ccc(-c3ccccc3)cc2)cc1)Nc1ccncc1` [2-cyano-1-({4-[(4-phenylbenzene)sulfonyl]phenyl}methyl)-3-(p] [2-cyano-1-({4-[(4-phenylbenzene)sulfonyl]phenyl}methyl)-3-(pyridin-4-yl)guanidine], in assay [1], the pIC50 was 8.46. As for `N#C/N=C(\NCc1ccc(S(=O)(=O)c2ccc(-c3ccccc3)cc2)cc1)Nc1ccncc1` [2-cyano-1-({4-[(4-phenylbenzene)sulfonyl]phenyl}methyl)-3-(pyridin-4-yl)guanidine], in assay [2] (Homo sapiens, A2780, 72 h), the pIC50 was 8.21. On the same count and under the same terms, next, `N#CN=C(NCc1ccc(S(=O)(=O)c2ccc(-n3cccn3)c(F)c2)cc1)Nc1ccncc1` [2-cyano-1-[(4-{[3-fluoro-4-(1H-pyrazol-1-yl)benzene]sulfonyl}phenyl)methyl]-3-(pyridin-4-yl)guanidine]: 8.03.
